Results taken from patent EP0070049A1, “Derivative of acetylsalicylic acid having an analgetic, antipyretic, antiphlogistic and bronchosecretolytic activity” (UNIONE CHIMICA MEDICAMENTI- DIFME-S.p.A., priority 1981, dated 1983).

System: rats
Details: rat, in vivo, 915 mg/kg
Excerpt: La toxicité subaiguë de l'acétylsalicylate de 2(o-méthoxy-phénoxy)éthanol a été évaluée en comparaison avec celle de l'acide acétylsalicylique en administrant à des rats, par voie orale, des doses journalières de substance pour 10 jours, et en relevant le nombre des animaux morts, la diminution moyenne de poids des animaux traités et l'incidence des lésions gastriques relevées, distinguées en simple hyperémie, hyperémie accompagnée par hémorragie et hémorragie accompagnée par ulcérations. Les résultats des épreuves sont indiqués dans le Tableau 5, dans lequel la dose de substance administrée est exprimée en mg de substance par kg de poids corporel et par jour, et la diminution moyenne de poids corporel à la fin du traitement est exprimée en grammes.

COc1ccccc1OCCOC(=O)c1ccccc1OC(C)=O [acétylsalicylate de 2(o-méthoxy-phénoxy)éthanol]
Lésions gastriques Hyperémie: 4
Lésions gastriques Hyperémie + hémorragie: 2
Lésions gastriques Hémorragie + ulcérations: =
Nombre animaux morts: 3
Δ poids moyenne: -10 grammes
